In patent US10913732B2, “Furoxans as therapies for neurodegenerative disorders” (The University of Toledo, priority 2016, dated 2021):

What was measured:
[1] = tested on: pCREB; experiment: pCREB modulation in PC-12 cells (without insult, with OGD, L-NAME); format: cell-based; details: 31b 25 μM, 48 hr incubation
Experimental: FIGS. 3A-3C: Neuroprotection (FIG. 3A), MTT treatment was used to assess cell viability (FIG. 3B), and pCREB modulation (FIG. 3C) of furoxan compounds. Neuroprotection assay workflow: expose PC12 cells to oxygen glucose deprivation (OGD) for 90 min→reoxygenate and add furoxan (1, 10, or 25 μM)→incubate for 24 hr→MTT readout of viability. Data represented as mean and s.e.m. (n=3). *=p<0.05, **=p<0.01, ***=p<0.001 compared to vehicle control using one way ANOVA analysis with Dunnett's post-hoc test. Red dashed line indicates threshold of vehicle effects. For pCREB modulation, 31b (25 μM) was examined (PC-12 cells, 48 hr incubation) in the following: without insult, with OGD, L-NAME.

[2] = In vivo pharmacokinetics, plasma and forebrain levels by LC-MS/MS; design: species or system mice
Experimental: FIGS. 6A-6C: The ratio of the AUC of the MRM transition for 31b versus 41b was calculated and the resulting values were normalized based on total protein concentration of samples (determined by Bradford assay). N=4 per group. Data shown as SEM, analysis by one way ANOVA with Tukey's post-test. *=p<0.05. Half-life's were calculated based on first order exponential decay.
31b was administered to mice and specimens were processed according to FIG. 4A. Levels of 31b were determined in the plasma and forebrain after intraperitoneal (ip) and oral (po) administration at varying post-administration time points (1, 2, or 12 hr [N=4 per cohort]). […] A deuterated (d^4) analog of 31b, designated 41b, was synthesized for LC-MS studies. Deuterated internal standards are required for absolute quantitation via LC-MS/MS and are desirable for because they have identical physiochemical properties to their non-deuterated kin, but may be distinguished based on molecular weight. Inclusion of 41b allows for control of extraction efficiency, technique proficiency, and instrumentation sensitivity. Extraction methodology and tandem LC-MS/MS parameters (optimized MRM transitions) were developed and validated via extraction of blank brain tissue spiked with 31b and 41b to develop a calibration curve. In this initial evaluation, the appropriate forebrain and plasma samples were spiked with a fixed concentration of 41b, homogenized in extraction buffer, applied to a solid phase resin cartridge, eluted, concentrated, reconstituted, and analyzed via MRM monitoring using LC-MS/MS. […] There were no significant differences in levels of 31b in the brain (B) versus plasma (P), with an average B:P ratio of 1.6 (±0.8). […] Without wishing to be bound by theory, it is believed that low oral bioavailability of 31b is the result of rapid 1st pass metabolism, since the microsomal stability studies indicate poor hepatic stability. The use of common dosage form strategies likely results in improved oral bioavailability. Alternative administration routes, including intranasal, are also believed to result in high brain bioavailability based on the relativity high lipophilicity of the embodiments tested. […] Moreover, the physiochemical properties proposed as being appropriate for CNS drugs are appropriate. The long residence time of the furoxan (visible in the brain after 12 hr), indicates an ideal scenario for daily dosing.
Forebrain tissue (˜30 mg) was homogenized in 1 ml of tissue extraction buffer (Invitrogen) containing a protease inhibitor cocktail (PIC). 100 μL of the resulting homogenate (or 100 μL of plasma) was spiked with 2% Formic acid (200 μL, containing 41b [0.5 μM]—internal standard) and vortexed for 1 min. The mixture was applied to an Evolute Express ABN column (Biotage) and filtered through via vacuum filtration. The matrix was washed with dH2O (1 mL) and analytes eluted with MeOH (1 mL). The resulting extract was evaporated to dryness by passing over air and reconstituted in ACN/dH2O (100 μL). A 10 μL injection was analyzed by LC-MS/MS. Analysis was carried out on a Shimadzu Nexera XR HPLC coupled with a Shimadzu 8050 triple quadrupole mass spectrometer. LC utilized a Kinetex-core column (Phenomenex): 2.6 um C18 100 A, 100×4.6 mm. HPLC Method: solvents, H2O [0.1% FA]—solvent A; MeOH [0.1% FA]—solvent B; flow rate 1.0 mL/min (utilized Tsplitter, mass spectrometer effective flow rate 0.4 mL/min). Gradient: t=2 min, 5% B; t=6 min, 95% B; t=7.0 min, 95% B; t=7.01, 5% B. Stop time 10 min. Diverter valve was utilized and eluent only averted to MS from 5 min-8 min. Quantity was determined based on the AUC of the internal standard versus the AUC of the analyte peak.

[3] = Thiol reactivity by incubation with excess thiol, HPLC-UVvis; format: physicochemical
Experimental: FIGS. 5A-5B: Thiol reactivity was analyzed via incubations containing 31b (250 μM) in the presence or absence of excess (5 mM) cysteine (or N-acetylcysteine [NAc]) in PBS (50 mM, pH
7.4) at 37° C. (FIG. 5A). Incubations were placed in a temperature controlled HPLC autosampler and aliquots are analyzed by HPLC-UVvis periodically for 2-24 hr. Percent furoxan remaining was determined based on the area under the curve (AUC) of the HPLC UV-absorbance spectrum. Similarly, rat liver microsomes were incubated with 31b in the presence or absence of NADPH to determine microsomal stability (FIG. 5B). Warfarin and verapamil were used as slow and fast metabolizing controls.
Without wishing to be bound by theory, it is believed that furoxans require thiol attack to produce NO. […] Thiol reactivity of 31b was assessed via incubations with excess thiol (N-acetylcysteine [NAc]) at physiological pH and temperature using a temperature controlled HPLC autosampler. […]
HPLC method: solvents, H2O [0.1% FA]—solvent A; MeOH [0.1% FA]—solvent B; flow rate 1.0 mL/min. […] As described above, thiol reactivity was analyzed via incubations containing the furoxan (250 μM) in the presence or absence of excess (5 mM) cysteine (or N-acetylcysteine [NAc]) in PBS (50 mM, pH 7.4) at 37° C. Incubations were placed in a temperature controlled HPLC autosampler and aliquots were analyzed by HPLC-UVvis periodically for 2-24 hr. […]

SMILES: CC1CCN(Cc2no[n+]([O-])c2-c2ccc(F)cc2)CC1 [31b]
- Effects of NOS inhibition on pCREB [1]: reverses the effects of NOS inhibition on pCREB
- Amounts in ip-treated mice compared to oral gavage ([2]; mice): significantly higher amounts in ip-treated mice
- Levels in plasma and forebrain after 12 h ([2]; mice, ip and po): detectable levels
- Oral bioavailability ([2]; mice, po): low
- Kp ([2]; mouse, forebrain versus plasma, other: intraperitoneal (ip) and oral (po), averaged together, mice, read-out: Average B:P ratio (brain versus plasma)): 1.6
- Brain penetration ([2]; mouse, in vivo): significant brain penetration
- half-life ([2]; mouse, plasma and forebrain, intraperitoneal and oral, mice, ip and po, first order exponential decay, read-out: In vivo t1/2 for brain and plasma): 0.833 to 1.83 h
- Stability in the presence of general cellular thiols, such as GSH and cysteine [3]: extremely stable
- Change in amount of furoxan with excess thiol ([3]; 250 μM, 5 mM N-acetylcysteine, PBS pH 7.4, 37° C., after 24 hr): no measurable change
